Laboratory results reported in PubChem BioAssay AID1963964 (Molecular Pharmacology Branch, DTP, NCI, 2024).

Test system: 997726-040-R-J2-PDC tumor spheroids, viability
Assay: Anticancer human tumor 997726-040-R-J2-PDC patient-derived squamous cell lung carcinoma cell line growth inhibition [PI3K]
Settings: spheroids with HUVEC and MSC; for IC50: curve of first compound; for viability, T/C: stronger effect = lower value
Method in brief: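 Stroma-containing spheroids: tumor line, pooled-donor HUVEC, hMSC. Treatments: targeted agents with PI3K inhibitors. Dosing: clinically relevant, half-log spacing, 10 microM ceiling without known Cmax. Read-out: cell viability.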

[1] = second compound 0.00316 µM, first compound 0.0316 µM
[2] = second compound 0.00316 µM, first compound 0.1 µM
[3] = second compound 0.01 µM, first compound 0.0316 µM
[4] = second compound 0.01 µM, first compound 0.1 µM
[5] = second compound 0.0316 µM, first compound 0.0316 µM
[6] = second compound 0.0316 µM, first compound 0.1 µM
[7] = second compound 0.1 µM, first compound 0.0316 µM
[8] = second compound 0.1 µM, first compound 0.1 µM
[9] = second compound 0.316 µM, first compound 0.0316 µM
[10] = second compound 0.316 µM, first compound 0.1 µM
[11] = second compound 1 µM, first compound 0.0316 µM
[12] = second compound 1 µM, first compound 0.1 µM
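Also: spheroids exposed to compounds for seven days before readout.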

C[C@@H](NC(=O)c1ncnc(N)c1Cl)c1ncc(C(=O)Nc2cc(C(F)(F)F)c(Cl)cn2)s1 + CC(Nc1ccc2c(c1)OCCn1cc(N3C(=O)OCC3C(F)F)nc1-2)C(N)=O
IC50 (second compound 0.00316 µM): > 10000 nM
IC50 (second compound 0.01 µM): > 10000 nM
IC50 (second compound 0.0316 µM): 6260 nM
IC50 (second compound 0.1 µM): 4170 nM
IC50 (second compound 0.316 µM): < 31.6 nM
IC50 (second compound 1 µM): < 31.6 nM
viability, T/C [1]: 92.1%
viability, T/C [2]: 122%
viability, T/C (second compound 0.00316 µM, first compound 0.316 µM): 104%
viability, T/C (second compound 0.00316 µM, first compound 1 µM): 100%
viability, T/C (second compound 0.00316 µM, first compound 3.16 µM): 85.3%
viability, T/C (second compound 0.00316 µM, first compound 10 µM): 60.4%
viability, T/C [3]: 89.5%
viability, T/C [4]: 95.2%
viability, T/C (second compound 0.01 µM, first compound 0.316 µM): 93.5%
viability, T/C (second compound 0.01 µM, first compound 1 µM): 93.7%
viability, T/C (second compound 0.01 µM, first compound 3.16 µM): 80.7%
viability, T/C (second compound 0.01 µM, first compound 10 µM): 58.3%
viability, T/C [5]: 67%
viability, T/C [6]: 80.4%
viability, T/C (second compound 0.0316 µM, first compound 0.316 µM): 66.1%
viability, T/C (second compound 0.0316 µM, first compound 1 µM): 61.9%
viability, T/C (second compound 0.0316 µM, first compound 3.16 µM): 57.9%
viability, T/C (second compound 0.0316 µM, first compound 10 µM): 45.3%
viability, T/C [7]: 55%
viability, T/C [8]: 53.7%
viability, T/C (second compound 0.1 µM, first compound 0.316 µM): 58.3%
viability, T/C (second compound 0.1 µM, first compound 1 µM): 58.3%
viability, T/C (second compound 0.1 µM, first compound 3.16 µM): 51.8%
viability, T/C (second compound 0.1 µM, first compound 10 µM): 40.5%
viability, T/C [9]: 42.3%
viability, T/C [10]: 39.3%
viability, T/C (second compound 0.316 µM, first compound 0.316 µM): 37.1%
viability, T/C (second compound 0.316 µM, first compound 1 µM): 41%
viability, T/C (second compound 0.316 µM, first compound 3.16 µM): 39.2%
viability, T/C (second compound 0.316 µM, first compound 10 µM): 30.7%
viability, T/C [11]: 34%
viability, T/C [12]: 33.8%
viability, T/C (second compound 1 µM, first compound 0.316 µM): 33.6%
viability, T/C (second compound 1 µM, first compound 1 µM): 35.5%
viability, T/C (second compound 1 µM, first compound 3.16 µM): 33.6%
viability, T/C (second compound 1 µM, first compound 10 µM): 24.1%

Cn1ncnc1[C@H]1c2n[nH]c(=O)c3cc(F)cc(c23)N[C@@H]1c1ccc(F)cc1 + COc1c(OCCCN2CCOCC2)ccc2c3n(c(=NC(=O)c4cnc(N)nc4)nc12)CCN3
IC50 (second compound 0.00316 µM): > 100 nM
IC50 (second compound 0.01 µM): > 100 nM
IC50 (second compound 0.0316 µM): < 0.316 nM
IC50 (second compound 0.1 µM): < 0.316 nM
IC50 (second compound 0.316 µM): < 0.316 nM
IC50 (second compound 1 µM): < 0.316 nM
viability, T/C (second compound 0.00316 µM, first compound 0.000316 µM): 76.4%
viability, T/C (second compound 0.00316 µM, first compound 0.001 µM): 77%
viability, T/C (second compound 0.00316 µM, first compound 0.00316 µM): 75.6%
viability, T/C (second compound 0.00316 µM, first compound 0.01 µM): 82.9%
viability, T/C [1]: 77.6%
viability, T/C [2]: 70.5%
viability, T/C (second compound 0.01 µM, first compound 0.000316 µM): 52%
viability, T/C (second compound 0.01 µM, first compound 0.001 µM): 56.6%
viability, T/C (second compound 0.01 µM, first compound 0.00316 µM): 61.1%
viability, T/C (second compound 0.01 µM, first compound 0.01 µM): 54.8%
viability, T/C [3]: 64.2%
viability, T/C [4]: 58.1%
viability, T/C (second compound 0.0316 µM, first compound 0.000316 µM): 33.7%
viability, T/C (second compound 0.0316 µM, first compound 0.001 µM): 35.3%
viability, T/C (second compound 0.0316 µM, first compound 0.00316 µM): 33.7%
viability, T/C (second compound 0.0316 µM, first compound 0.01 µM): 37.1%
viability, T/C [5]: 34.1%
viability, T/C [6]: 36.5%
viability, T/C (second compound 0.1 µM, first compound 0.000316 µM): 25.1%
viability, T/C (second compound 0.1 µM, first compound 0.001 µM): 22.2%
viability, T/C (second compound 0.1 µM, first compound 0.00316 µM): 26.5%
viability, T/C (second compound 0.1 µM, first compound 0.01 µM): 23.1%
viability, T/C [7]: 23.2%
viability, T/C [8]: 22.6%
viability, T/C (second compound 0.316 µM, first compound 0.000316 µM): 5.23%
viability, T/C (second compound 0.316 µM, first compound 0.001 µM): 5.9%
viability, T/C (second compound 0.316 µM, first compound 0.00316 µM): 5.66%
viability, T/C (second compound 0.316 µM, first compound 0.01 µM): 5.44%
viability, T/C [9]: 5.95%
viability, T/C [10]: 5.09%
viability, T/C (second compound 1 µM, first compound 0.000316 µM): 1.25%
viability, T/C (second compound 1 µM, first compound 0.001 µM): 1.22%
viability, T/C (second compound 1 µM, first compound 0.00316 µM): 1.38%
viability, T/C (second compound 1 µM, first compound 0.01 µM): 1.16%
viability, T/C [11]: 1.33%
viability, T/C [12]: 1.04%
